These results are taken from patent publication US5034391A, “Piperazinylalkyl-3(2H)-pyridazinones and the use thereof as agents lowering blood pressure” (CL Pharma Aktiengesellschaft, priority 1988, dated 1991).

Data set [1] in a line: Solubility of the isolated salt in water (remark in the preparation examples). The format is physicochemical. The settings on record: hydrochloride / dihydrochloride salt.
The target of a further data set is T1, alpha1 adrenoceptors (Rattus norvegicus, UniProt P15823).
T1 construct: from tissue; host or cells: rat cardiac membranes
T1 sequence (P15823 1-515): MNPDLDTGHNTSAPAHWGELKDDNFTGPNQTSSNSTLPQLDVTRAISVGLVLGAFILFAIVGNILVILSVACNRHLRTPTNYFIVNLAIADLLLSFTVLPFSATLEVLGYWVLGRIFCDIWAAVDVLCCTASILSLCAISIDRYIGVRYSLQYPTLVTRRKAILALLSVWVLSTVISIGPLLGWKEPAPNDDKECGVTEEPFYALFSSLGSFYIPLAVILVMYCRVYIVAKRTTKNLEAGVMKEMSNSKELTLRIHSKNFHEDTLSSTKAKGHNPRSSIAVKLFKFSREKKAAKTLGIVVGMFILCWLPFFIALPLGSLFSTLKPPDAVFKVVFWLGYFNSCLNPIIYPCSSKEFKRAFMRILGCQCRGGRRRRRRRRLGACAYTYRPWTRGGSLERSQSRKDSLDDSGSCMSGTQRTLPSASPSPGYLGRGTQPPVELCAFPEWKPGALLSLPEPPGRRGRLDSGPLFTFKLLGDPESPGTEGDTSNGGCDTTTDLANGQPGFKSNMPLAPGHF
The data set can be described thus: Affinity for alpha1 adrenoceptors: displacement of tritiated prazosin on rat cardiac membranes. The settings on record: Ki from IC50 by Cheng and Prusoff, read-out: Inhibition constants at alpha-1-adrenoceptor (Ki). The format is binding. The procedure, abridged:
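Competitive displacement of tritiated prazosin from rat cardiac membranes; IC50 taken as the concentration giving 50% inhibition of specific binding. Ki values converted from IC50 by the Cheng-Prusoff relation.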

Another data set addresses T2, 5-HT-1A receptors (Rattus norvegicus, UniProt P19327).
T2 construct: 5-HT-1A receptors in rat brain membranes; from tissue; host or cells: rat brain membranes
T2 sequence (P19327 1-422): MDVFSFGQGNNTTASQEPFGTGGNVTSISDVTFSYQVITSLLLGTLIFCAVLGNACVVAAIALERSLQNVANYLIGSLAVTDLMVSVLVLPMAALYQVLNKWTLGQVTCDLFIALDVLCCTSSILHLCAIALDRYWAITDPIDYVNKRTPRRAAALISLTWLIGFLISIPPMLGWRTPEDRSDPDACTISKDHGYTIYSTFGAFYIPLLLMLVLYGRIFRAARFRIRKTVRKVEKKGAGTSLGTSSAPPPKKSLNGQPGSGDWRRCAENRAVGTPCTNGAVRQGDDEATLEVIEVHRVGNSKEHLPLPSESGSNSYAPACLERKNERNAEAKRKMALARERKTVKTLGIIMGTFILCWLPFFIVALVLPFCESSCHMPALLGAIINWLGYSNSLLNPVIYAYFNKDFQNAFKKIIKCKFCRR
The data set can be described thus: Affinity for 5-HT-1A receptors: displacement of tritiated 8-OH-DPAT on rat brain membranes. Type of data set: binding. The following applies: Ki from IC50 by Cheng and Prusoff, read-out: Inhibition constants at 5-HT1A-receptor (Ki). As to the method: The affinity of compounds of the general formula I for 5-HT-1A receptors was determined by the method described by H. Gozlan, S. Elmestikawy, L. Pichat, J. Glowinski and M. Hamon in Nature 305, 140-142 (1983). In this method the competitive displacement of tritiated 8-OH-DPAT (8-hydroxy-(di-n-propylamino)tetralin) on rat brain membranes by the test substances is measured, and the IC50 (50% inhibition concentration) is determined as that concentration which brings about a 50% inhibition of the specific binding of tritiated 8-OH-DPAT to 5-HT-1A receptors in rat brain membranes.
The concentration-independent inhibitor constants K1 -alpha1 and K1 -5HT-1A were determined from the IC50 values as stated by Y. Cheng and H. W. Prusoff in Biochem. Pharmacol. 22, 3099-3108 (1973).

Turning to `CC(C)(C)n1ncc(NCCN2CCN(c3cccc(C(F)(F)F)c3)CC2)c(Cl)c1=O`, in data set [1], the solubility in water entry is reported as “readily soluble in water”.
On the same count and under the same terms, next, `CC(C)(C)n1ncc(Cl)c(NCCN2CCN(c3cccc(C(F)(F)F)c3)CC2)c1=O`: “readily soluble in water”; `COc1ccccc1N1CCN(CCCCCCNc2cnn(C)c(=O)c2Cl)CC1` [2-Methyl-4-chloro-5-((6-(4-(2-methoxyphenyl)-1-piperazinyl)hexyl)amino)-3(2H)-pyridazinone]: “soluble in water”.
In the case of `Cc1cccc(C)c1N1CCN(CCNc2cnn(C)c(=O)c2Cl)CC1` [2-methyl-4-chloro-5-((2-(4-(2,6-dimethylphenyl)-1-piperazinyl)ethyl)amino)-3(2H)-pyridazinone], the solubility in water entry in data set [1] is “readily soluble in water”.
Still for that read-out and setting: with `Cc1cccc(C)c1N1CCN(CCNc2c(Cl)cnn(C)c2=O)CC1` [2-methyl-5-chloro-4-((2-(4-(2,6-dimethylphenyl)-1-piperazinyl)ethyl)amino)-3(2H)-pyridazinone] the entry was “readily soluble in water”; with `COc1ccccc1N1CCN(CCCCCCNc2c(Cl)cnn(C)c2=O)CC1` [2-methyl-5-chloro-4-((6-(4-(2-methoxyphenyl)-1-piperazinyl)hexyl)amino)-3(2H)-pyridazinone], “soluble in water”.
Take `COc1ccccc1N1CCN(CCNc2cnn(C(C)(C)C)c(=O)c2Cl)CC1` [2-t-Butyl-4-chloro-5-((2-(4-(2-methoxyphenyl)piperazinyl-1)ethyl)amino)-3(2H)-pyridazinone]: the results for the inhibitory constant (Ki) at alpha1 adrenoceptors and at 5-HT-1A receptors were 12.8 nM and 39.4 nM, respectively.
The like results for `COc1ccccc1N1CCN(CCNc2cnn(C(C)(C)C)c(=O)c2)CC1` [2-t-Butyl-5-((2-(4-(2-methoxyphenyl)piperazinyl-1)ethyl)amino)-3(2H)-pyridazinone] were, in that order, 6.03 nM and 65.8 nM.
On to `COc1ccccc1N1CCN(CCNc2c(Cl)cnn(C(C)(C)C)c2=O)CC1` [2-t-Butyl-5-chloro-4-((2-(4-(2-methoxyphenyl)piperazinyl-1)ethyl)amino)-3(2H)-pyridazinone], for which the inhibition constant (Ki) (usually the dissociation constant of the complex between target and ligand, obtained from inhibition or displacement) on alpha1 adrenoceptors came out at 42.2 nM; at 5-HT-1A receptors, 9.45 nM.
On the same counts, the results for `COc1ccccc1N1CCN(CCNc2cn[nH]c(=O)c2Cl)CC1` [4-Chloro-5-((2-(4-(2-methoxyphenyl)-1-piperazinyl)ethyl)amino)-3(2H)-pyridazinone] are 5.43 nM and 27 nM.
The like results for `COc1ccccc1N1CCN(CCNc2c(OC)cnn(C)c2=O)CC1` [5-Methoxy-2-methyl-4-((2-(4-(2-methoxyphenyl)-1-piperazinyl)ethyl)amino)-3(2H)-pyridazinone] were, in that order, 7.83 nM and 90.8 nM.
The like results for `COc1ccccc1N1CCN(CCCNc2cc(=O)n(C)c(=O)n2C)CC1` [URAPIDIL, reference compound] were, in that order, 110 nM and 93.1 nM.
